Test results: BigSolDB 2.1

Compound: Oc1ccccc1C=N[C@@H]1CCCC[C@H]1N=Cc1ccccc1O
- solubility (mole fraction) (in 1,2-dichloroethane, 273.15 K): 0.0862
- solubility (mole fraction) (in 1,2-dichloroethane, 278.15 K): 0.0965
- solubility (mole fraction) (in 1,2-dichloroethane, 283.15 K): 0.109
- solubility (mole fraction) (in 1,2-dichloroethane, 288.15 K): 0.12
- solubility (mole fraction) (in 1,2-dichloroethane, 293.15 K): 0.134
- solubility (mole fraction) (in 1,2-dichloroethane, 298.15 K): 0.15
- solubility (mole fraction) (in 1,2-dichloroethane, 303.15 K): 0.168
- solubility (mole fraction) (in 1,2-dichloroethane, 308.15 K): 0.187
- solubility (mole fraction) (in 1,2-dichloroethane, 313.15 K): 0.211
- solubility (mole fraction) (in THF, 273.15 K): 0.135
- solubility (mole fraction) (in THF, 278.15 K): 0.144
- solubility (mole fraction) (in THF, 283.15 K): 0.157
- solubility (mole fraction) (in THF, 288.15 K): 0.169
- solubility (mole fraction) (in THF, 293.15 K): 0.186
- solubility (mole fraction) (in THF, 298.15 K): 0.201
- solubility (mole fraction) (in THF, 303.15 K): 0.221
- solubility (mole fraction) (in THF, 308.15 K): 0.242
- solubility (mole fraction) (in THF, 313.15 K): 0.263
- solubility (mole fraction) (in acetone, 273.15 K): 0.0295
- solubility (mole fraction) (in acetone, 278.15 K): 0.0351
- solubility (mole fraction) (in acetone, 283.15 K): 0.0402
- solubility (mole fraction) (in acetone, 288.15 K): 0.0462
- solubility (mole fraction) (in acetone, 293.15 K): 0.053
- solubility (mole fraction) (in acetone, 298.15 K): 0.0626
- solubility (mole fraction) (in acetone, 303.15 K): 0.0732
- solubility (mole fraction) (in acetone, 308.15 K): 0.0843
- solubility (mole fraction) (in acetone, 313.15 K): 0.0956
- solubility (mole fraction) (in acetonitrile, 273.15 K): 0.00397
- solubility (mole fraction) (in acetonitrile, 278.15 K): 0.00491
- solubility (mole fraction) (in acetonitrile, 283.15 K): 0.00616
- solubility (mole fraction) (in acetonitrile, 288.15 K): 0.0076
- solubility (mole fraction) (in acetonitrile, 293.15 K): 0.00961
- solubility (mole fraction) (in acetonitrile, 298.15 K): 0.0122
- solubility (mole fraction) (in acetonitrile, 303.15 K): 0.0159
- solubility (mole fraction) (in acetonitrile, 308.15 K): 0.02
- solubility (mole fraction) (in acetonitrile, 313.15 K): 0.025
- solubility (mole fraction) (in dichloromethane, 273.15 K): 0.117
- solubility (mole fraction) (in dichloromethane, 278.15 K): 0.13
- solubility (mole fraction) (in dichloromethane, 283.15 K): 0.141
- solubility (mole fraction) (in dichloromethane, 288.15 K): 0.154
- solubility (mole fraction) (in dichloromethane, 293.15 K): 0.165
- solubility (mole fraction) (in dichloromethane, 298.15 K): 0.18
- solubility (mole fraction) (in dichloromethane, 303.15 K): 0.197
- solubility (mole fraction) (in dichloromethane, 308.15 K): 0.213
- solubility (mole fraction) (in dichloromethane, 313.15 K): 0.229
- solubility (mole fraction) (in ethanol, 273.15 K): 0.000787
- solubility (mole fraction) (in ethanol, 278.15 K): 0.000988
- solubility (mole fraction) (in ethanol, 283.15 K): 0.00123
- solubility (mole fraction) (in ethanol, 288.15 K): 0.00153
- solubility (mole fraction) (in ethanol, 293.15 K): 0.00189
- solubility (mole fraction) (in ethanol, 298.15 K): 0.00236
- solubility (mole fraction) (in ethanol, 303.15 K): 0.0029
- solubility (mole fraction) (in ethanol, 308.15 K): 0.00358
- solubility (mole fraction) (in ethanol, 313.15 K): 0.00452
- solubility (mole fraction) (in ethyl acetate, 273.15 K): 0.0241
- solubility (mole fraction) (in ethyl acetate, 278.15 K): 0.0294
- solubility (mole fraction) (in ethyl acetate, 283.15 K): 0.0347
- solubility (mole fraction) (in ethyl acetate, 288.15 K): 0.0415
- solubility (mole fraction) (in ethyl acetate, 293.15 K): 0.0489
- solubility (mole fraction) (in ethyl acetate, 298.15 K): 0.0592
- solubility (mole fraction) (in ethyl acetate, 303.15 K): 0.0691
- solubility (mole fraction) (in ethyl acetate, 308.15 K): 0.0852
- solubility (mole fraction) (in ethyl acetate, 313.15 K): 0.101
- solubility (mole fraction) (in methanol, 273.15 K): 0.00051
- solubility (mole fraction) (in methanol, 278.15 K): 0.000645
- solubility (mole fraction) (in methanol, 283.15 K): 0.000817
- solubility (mole fraction) (in methanol, 288.15 K): 0.00103
- solubility (mole fraction) (in methanol, 293.15 K): 0.00128
- solubility (mole fraction) (in methanol, 298.15 K): 0.00161
- solubility (mole fraction) (in methanol, 303.15 K): 0.00198
- solubility (mole fraction) (in methanol, 308.15 K): 0.00242
- solubility (mole fraction) (in methanol, 313.15 K): 0.00298
- solubility (mole fraction) (in methyl acetate, 273.15 K): 0.0199
- solubility (mole fraction) (in methyl acetate, 278.15 K): 0.0244
- solubility (mole fraction) (in methyl acetate, 283.15 K): 0.0292
- solubility (mole fraction) (in methyl acetate, 288.15 K): 0.0357
- solubility (mole fraction) (in methyl acetate, 293.15 K): 0.0436
- solubility (mole fraction) (in methyl acetate, 298.15 K): 0.0532
- solubility (mole fraction) (in methyl acetate, 303.15 K): 0.0648
- solubility (mole fraction) (in methyl acetate, 308.15 K): 0.0791
- solubility (mole fraction) (in methyl acetate, 313.15 K): 0.0961
- solubility (mole fraction) (in n-hexane, 273.15 K): 0.000539
- solubility (mole fraction) (in n-hexane, 278.15 K): 0.000713
- solubility (mole fraction) (in n-hexane, 283.15 K): 0.000988
- solubility (mole fraction) (in n-hexane, 288.15 K): 0.00131
- solubility (mole fraction) (in n-hexane, 293.15 K): 0.00172
- solubility (mole fraction) (in n-hexane, 298.15 K): 0.00223
- solubility (mole fraction) (in n-hexane, 303.15 K): 0.00287
- solubility (mole fraction) (in n-hexane, 308.15 K): 0.00376
- solubility (mole fraction) (in n-hexane, 313.15 K): 0.00449
- solubility (mole fraction) (in n-propanol, 273.15 K): 0.001
- solubility (mole fraction) (in n-propanol, 278.15 K): 0.00125
- solubility (mole fraction) (in n-propanol, 283.15 K): 0.00157
- solubility (mole fraction) (in n-propanol, 288.15 K): 0.00196
- solubility (mole fraction) (in n-propanol, 293.15 K): 0.00243
- solubility (mole fraction) (in n-propanol, 298.15 K): 0.00303
- solubility (mole fraction) (in n-propanol, 303.15 K): 0.00372
- solubility (mole fraction) (in n-propanol, 308.15 K): 0.00452
- solubility (mole fraction) (in n-propanol, 313.15 K): 0.00554
- solubility (mole fraction) (in toluene, 273.15 K): 0.0411
- solubility (mole fraction) (in toluene, 278.15 K): 0.0487
- solubility (mole fraction) (in toluene, 283.15 K): 0.0566
- solubility (mole fraction) (in toluene, 288.15 K): 0.0674
- solubility (mole fraction) (in toluene, 293.15 K): 0.0802
- solubility (mole fraction) (in toluene, 298.15 K): 0.0954
- solubility (mole fraction) (in toluene, 303.15 K): 0.11
- solubility (mole fraction) (in toluene, 308.15 K): 0.129
- solubility (mole fraction) (in toluene, 313.15 K): 0.149
